From patent US20210161174A1, “FEED ADDITIVE FOR FARMED ANIMALS” (ADISSEO FRANCE S.A.S., priority 2018, published 2021)
Marks after values point to notes of the source that are not given here.

Key:
[1] = Example 2: carcass, abdominal fat and yields of commercial cuts at 42 d; type: in vivo, Broiler Chicken (Cobb 500); conditions: for Abdominal fat yield / Breast fillets yield / Breast tenders yield / Drumsticks yield / Thighs yield / Wings yield: proportion of the carcass
Description: (§1) Study Animals: • Animal: Broiler Chicken • Breed/Strain: Cobb 500 • Description: Day-of-hatch male chicks, sexed at hatchery • Sex: Male
(§2) Processing: On day […] (12) birds are selected from each pen for processing (at 12 reps/trt: 576 birds in total; 144 birds/trt)
(§3) Dietary Treatments • Control (NC, negative control without PQQ) • 0.2 ppm PQQ • 0.5 ppm PQQ • 1 ppm PQQ

wooden breast myopathies = assay: Example 2: wooden breast assessment by expert panel at 42 d; type: in vivo, Broiler Chicken (Cobb 500); conditions: for wooden breast means per treatment (WB): score scale WB0-WB4
Description: as §1, §2
Wooden breast assessment was determined by an expert panel according to 5 levels: WB0, WB1, WB2, WB3, WB4 from no WB to severe WB.
as §3
Wooden Breast Scores were: WB 0—normal breast; WB 1—mild hardening in the upper; WB 2—moderate hardening in the upper and/or lower part of the fillet; WB 3—severe hardening; WB 4—severe hardening with hemorrhagic lesions, increased volume, and presence of yellow fluid.
Higher is the score per WB 3 and 4 categories, greater is the default. Conversely, for categories WB0 to WB2, higher is the score, better is the quality.
Wooden breast scores were: WB0—normal breast; WB1—mild hardening in the upper; WB 2—moderate hardening in the upper and/or lower part of the fillet; WB 3—severe hardening; WB 4—severe hardening with hemorrhagic lesions, increased volume, and presence of yellow fluid.

O=C(O)c1cc(C(=O)O)c2c(n1)C(=O)C(=O)c1cc(C(=O)O)[nH]c1-2 [PQQ, pyrroloquinoline quinone]
Abdominal fat weight ([1]; 0.2 ppm PQQ): 26 g | Breast fillets weight ([1]; 0.2 ppm PQQ): 680 g | Breast tenders weight ([1]; 0.2 ppm PQQ): 127ab g | Carcass yield (eviscerated carcass as a percentage of body weight) ([1]; 0.2 ppm PQQ): 80.3^b % | Drumsticks weight ([1]; 0.2 ppm PQQ): 467 g | Thighs weight ([1]; 0.2 ppm PQQ): 364 g | Wings weight ([1]; 0.2 ppm PQQ): 258 g | Abdominal fat yield ([1]; 0.2 ppm PQQ): 1.05% | Breast fillets yield ([1]; 0.2 ppm PQQ): 26.8% | Breast tenders yield ([1]; 0.2 ppm PQQ): 5.03^b % | Drumsticks yield ([1]; 0.2 ppm PQQ): 18.42^b % | Thighs yield ([1]; 0.2 ppm PQQ): 14.36^ab % | Wings yield ([1]; 0.2 ppm PQQ): 10.19^ab % | Abdominal fat weight ([1]; 0.5 ppm PQQ): 28 g | Breast fillets weight ([1]; 0.5 ppm PQQ): 677 g | Breast tenders weight ([1]; 0.5 ppm PQQ): 129ab g | Carcass yield (eviscerated carcass as a percentage of body weight) ([1]; 0.5 ppm PQQ): 80.4^b % | Drumsticks weight ([1]; 0.5 ppm PQQ): 473 g | Thighs weight ([1]; 0.5 ppm PQQ): 378 g | Wings weight ([1]; 0.5 ppm PQQ): 258 g | Abdominal fat yield ([1]; 0.5 ppm PQQ): 1.11% | Breast fillets yield ([1]; 0.5 ppm PQQ): 26.8% | Breast tenders yield ([1]; 0.5 ppm PQQ): 5.12^ab % | Drumsticks yield ([1]; 0.5 ppm PQQ): 18.73^ab % | Thighs yield ([1]; 0.5 ppm PQQ): 15.01^a % | Wings yield ([1]; 0.5 ppm PQQ): 10.42^a % | Abdominal fat weight ([1]; 1.0 ppm PQQ): 23 g | Breast fillets weight ([1]; 1.0 ppm PQQ): 702 g | Breast tenders weight ([1]; 1.0 ppm PQQ): 134a g | Carcass yield (eviscerated carcass as a percentage of body weight) ([1]; 1.0 ppm PQQ): 80.3^b % | Drumsticks weight ([1]; 1.0 ppm PQQ): 486 g | Thighs weight ([1]; 1.0 ppm PQQ): 366 g | Wings weight ([1]; 1.0 ppm PQQ): 259 g | Abdominal fat yield ([1]; 1.0 ppm PQQ): 0.90% | Breast fillets yield ([1]; 1.0 ppm PQQ): 27.4% | Breast tenders yield ([1]; 1.0 ppm PQQ): 5.22^a % | Drumsticks yield ([1]; 1.0 ppm PQQ): 18.89^a % | Thighs yield ([1]; 1.0 ppm PQQ): 14.24^b % | Wings yield ([1]; 1.0 ppm PQQ): 10.05^ab % | wooden breast myopathies occurrence, WB0 (wooden breast myopathies; 0.2 ppm PQQ (T2)): 0.83% | wooden breast myopathies occurrence, WB1 (wooden breast myopathies; 0.2 ppm PQQ (T2)): 2.78% | wooden breast myopathies occurrence, WB2 (wooden breast myopathies; 0.2 ppm PQQ (T2)): 20.00^a % | wooden breast myopathies occurrence, WB3 (wooden breast myopathies; 0.2 ppm PQQ (T2)): 49.16^a % | wooden breast myopathies occurrence, WB4 (wooden breast myopathies; 0.2 ppm PQQ (T2)): 27.22% | wooden breast myopathies scores, WB0 (wooden breast myopathies; 0.2 ppm PQQ (T2)): 0.08 | wooden breast myopathies scores, WB1 (wooden breast myopathies; 0.2 ppm PQQ (T2)): 0.17 | wooden breast myopathies scores, WB2 (wooden breast myopathies; 0.2 ppm PQQ (T2)): 1.17^b | wooden breast myopathies scores, WB3 (wooden breast myopathies; 0.2 ppm PQQ (T2)): 2.92 | wooden breast myopathies scores, WB4 (wooden breast myopathies; 0.2 ppm PQQ (T2)): 1.67 | wooden breast means per treatment (WB) (wooden breast myopathies; 0.2 ppm PQQ (T2)): 2.92^a | wooden breast myopathies occurrence, WB0 (wooden breast myopathies; 0.5 ppm PQQ (T3)): 0.00% | wooden breast myopathies occurrence, WB1 (wooden breast myopathies; 0.5 ppm PQQ (T3)): 15.29% | wooden breast myopathies occurrence, WB2 (wooden breast myopathies; 0.5 ppm PQQ (T3)): 41.67^ab % | wooden breast myopathies occurrence, WB3 (wooden breast myopathies; 0.5 ppm PQQ (T3)): 30.56^ab % | wooden breast myopathies occurrence, WB4 (wooden breast myopathies; 0.5 ppm PQQ (T3)): 12.50% | wooden breast myopathies scores, WB0 (wooden breast myopathies; 0.5 ppm PQQ (T3)): 0.00 | wooden breast myopathies scores, WB1 (wooden breast myopathies; 0.5 ppm PQQ (T3)): 0.92 | wooden breast myopathies scores, WB2 (wooden breast myopathies; 0.5 ppm PQQ (T3)): 2.50^ab | wooden breast myopathies scores, WB3 (wooden breast myopathies; 0.5 ppm PQQ (T3)): 1.83 | wooden breast myopathies scores, WB4 (wooden breast myopathies; 0.5 ppm PQQ (T3)): 0.75 | wooden breast means per treatment (WB) (wooden breast myopathies; 0.5 ppm PQQ (T3)): 2.36^b | change in proportion of WB2 breast fillets with supplementation (wooden breast myopathies; 1 ppm PQQ): +50% | change in proportion of WB4 breast fillets with supplementation (wooden breast myopathies; 1 ppm PQQ): −60% | wooden breast myopathies occurrence, WB0 (wooden breast myopathies; 1.0 ppm PQQ (T4)): 0.00% | wooden breast myopathies occurrence, WB1 (wooden breast myopathies; 1.0 ppm PQQ (T4)): 18.05% | wooden breast myopathies occurrence, WB2 (wooden breast myopathies; 1.0 ppm PQQ (T4)): 46.94^a % | wooden breast myopathies occurrence, WB3 (wooden breast myopathies; 1.0 ppm PQQ (T4)): 25.00^b % | wooden breast myopathies occurrence, WB4 (wooden breast myopathies; 1.0 ppm PQQ (T4)): 10.00% | wooden breast myopathies scores, WB0 (wooden breast myopathies; 1.0 ppm PQQ (T4)): 0.00 | wooden breast myopathies scores, WB1 (wooden breast myopathies; 1.0 ppm PQQ (T4)): 1.08 | wooden breast myopathies scores, WB2 (wooden breast myopathies; 1.0 ppm PQQ (T4)): 2.75^a | wooden breast myopathies scores, WB3 (wooden breast myopathies; 1.0 ppm PQQ (T4)): 1.50 | wooden breast myopathies scores, WB4 (wooden breast myopathies; 1.0 ppm PQQ (T4)): 0.58 | wooden breast means per treatment (WB) (wooden breast myopathies; 1.0 ppm PQQ (T4)): 2.26^b | proportions of bad quality fillets (WB3 and WB4) (wooden breast myopathies; supplementation with PQQ): lower proportions | proportions of good quality breast fillets (WB0 to WB2) (wooden breast myopathies; supplementation with PQQ): higher proportions
